According to patent publication US20240342168A1, “SMALL MOLECULE INHIBITORS FOR ANTI-CANCER COMBINATION THERAPY” (UNIVERSITY OF CAPE TOWN, priority 2021, published 2024):

What was measured:
p53 = conditions: CRM1 inhibition, other cancers, literature; cited from earlier work
CaSki = test: MTT cell viability / cisplatin IC50 determination; format: cell-based; conditions: 48-h treatment, no INI-43 pre-treatment
Description: (§1) HeLa, SiHa, CaSki and C33A cell lines were purchased from the American Type Culture Collection (ATCC) and maintained in Dulbecco's Modified Eagle's Medium (DMEM, Gibco, Life Technologies) containing 10% Fetal Bovine Serum (Gibco, Life Technologies), supplemented with 100 U/mL penicillin and 100 μg/mL streptomycin. Cells were cultured at 37° C. in a humidified chamber with 5% CO2. All cell lines were authenticated by DNA profiling using the Cell ID System (Promega, Madison, WI, USA).
(§2) Cells were plated in 96-well plates and subjected to single or CT (2 h INI-43 pre-treatment followed by cisplatin treatment, without removing IN1-43 from the media) for 48 h. Following treatment, MTT (Sigma) was added and 4 h later crystals solubilized using 10% SLS in 0.01 M HCl. Absorbencies were measured at 595 nm and IC50 values determined via plotting [Fa/(1-Fa)] in log scale against log cisplatin concentration, where:
(§3) The half inhibitory concentration was calculated using the formula IC50=10^x-intercept

SiHa = test: MTT cell viability / cisplatin IC50 determination; format: cell-based
Description: as §1, §2, §3

C33A = test: MTT cell viability / cisplatin IC50 determination; format: cell-based; conditions: 48-h treatment, no INI-43 pre-treatment
Description: as §1, §2, §3

HeLa = test: MTT cell viability / cisplatin IC50 determination; format: cell-based
Description: as §1, §2, §3

[1] = system: NFκB-p50 and NFκB-p65 in SiHa cells; test: Nuclear/cytoplasmic fractionation and Western blot; format: cell-based; conditions: cisplatin treatment
Description: For protein extraction, cells were washed with PBS and lysed using RIPA buffer (50 mM Tris-CI, pH 7.4, 150 mM NaCl, 1% (w/v) sodium deoxycholate, 0.1% (v/v) SDS, 1% (v/v) Triton X-100, 2 mM EGTA, 2 mM EDTA, 50 mM NaF, 5 mM Na2P2O7, 1× complete protease inhibitor cocktail (Roche) and 0.1 M Sodium Orthovanadate). For PARP cleavage analysis, dead cells were collected by centrifugation and combined with live cell lysates. Lysates were sonicated, centrifuged, and the supernatant quantified using the BCA Protein Assay Kit (Pierce, Thermo Scientific) according to the manufacturer's instructions. […]
For nuclear/cytoplasmic protein extraction, cells were collected by trypsinization. […] The fractions were quantified using the BCA Protein Assay Kit (Pierce, Thermo Scientific) according to the manufacturer's instructions, followed by western blot analysis.

[2] = system: p53 reporter activity in SiHa cells; test: p53-luciferase reporter assay; format: cell-based; conditions: single cisplatin treatment
Description: (§4) SiHa cells were transfected with 100 ng p65-luciferase reporter construct (containing five copies of the p65-binding site, Promega) or 200 ng p53-luciferase reporter construct (containing thirteen wildtype p53 binding sites, Addgene plasmid #16442, Addgene Plasmid Repository (el-Deiry W S, Tokino T, Velculescu V E, Levy D B, Parsons R, Trent J M, et al. WAF1, a potential mediator of p53 tumor suppression. Cell. 1993; 75(4):817-25) and 10 ng pRL-TK (encoding Renilla luciferase, Promega), using Genecellin transfection reagent (Celtic Molecular Diagnostics). The following day cells were treated with 5 μM INI-43 for 2 h, followed by 30 μM cisplatin for 24 h, and luciferase activity assayed using the Dual-Luciferase Report assay system (Promega), according to the manufacturer's instructions. Luciferase readings were measured using the Veritas™ microplate luminometer (Promega) and normalised to Renilla luciferase from the same extract.

[3] = system: NFκB-p50 and NFκB-p65 in SiHa cells; test: Immunofluorescence of NFκB nuclear localization; format: cell-based
Description: SiHa cells were plated on glass coverslips and treated for 24 h before fixation with 4% paraformaldehyde. Cells were permeabilised using 0.5% Triton-X-100/PBS and blocked using 1% BSA/PBST with 0.3 M Glycine. Primary antibody incubations were performed in 1% BSA/PBST, followed by secondary antibody incubation (Cy3 conjugated goat anti-rabbit, Jackson ImmunoResearch). Cell nuclei were counterstained with 0.5 μg/mL DAPI, and images captured using the Zeiss inverted fluorescence microscope under 100× oil immersion.

[4] = system: cyclin D1, c-Myc and XIAP; test: Western blot of NFκB targets; format: cell-based; conditions: single cisplatin treatment
Description: (§5) For protein extraction, cells were washed with PBS and lysed using RIPA buffer (50 mM Tris-CI, pH 7.4, 150 mM NaCl, 1% (w/v) sodium deoxycholate, 0.1% (v/v) SDS, 1% (v/v) Triton X-100, 2 mM EGTA, 2 mM EDTA, 50 mM NaF, 5 mM Na2P2O7, 1× complete protease inhibitor cocktail (Roche) and 0.1 M Sodium Orthovanadate). For PARP cleavage analysis, dead cells were collected by centrifugation and combined with live cell lysates. Lysates were sonicated, centrifuged, and the supernatant quantified using the BCA Protein Assay Kit (Pierce, Thermo Scientific) according to the manufacturer's instructions. Proteins were subjected to Western blot analysis using the following antibodies: rabbit anti-Kpnβ1 (H-300, sc-11,367, Santa Cruz), rabbit anti-β-tubulin (H-235, sc-9104, Santa Cruz), rabbit anti-PARP1/2 antibody (H-250, sc-7150, Santa Cruz), mouse anti-GAPDH (0411, sc-47,724, Santa Cruz), rabbit anti-p21 (H-164, sc-756, Santa Cruz), rabbit anti-Mcl-1 (H-260, sc-20,679, Santa Cruz), mouse anti-cyclin D1 (HD11, sc-246, Santa Cruz), rabbit anti-c-Myc (N-262, sc-764, Santa Cruz), mouse anti-p53 (DO-7, M7001, DakoCytomation), mouse anti-XIAP (610,763, BD Biosciences), and rabbit anti-phospho-Histone H2AX (γH2AX, Ser139, 20E3, #9718, Cell Signal).

[5] = system: p65 reporter activity in SiHa cells; test: p65-luciferase reporter assay; format: cell-based; conditions: 30 μM single cisplatin treatment
Description: as §4

[6] = system: p53, p21 and Mcl-1 in SiHa cells; test: Western blot of p53 and p53 targets; format: cell-based
Description: as §5

[7] = 48-h treatment, no INI-43 pre-treatment
[8] = Kpnβ1 knock-down (si-Kpnβ1) cells
[9] = control siRNA (si-ctrl) transfected cells
[10] = single cisplatin treatment at 30 μM and 60 μM

COc1cc(-c2ncn(/C=C\C(=O)OC(C)C)n2)cc(C(F)(F)F)c1 [KPT-185]
effect on p53 stability (p53): stabilize p53

N.N.[Cl][Pt][Cl] [cisplatin, reference compound]
IC50 (CaSki): 18.1 µM
IC50 (SiHa; [7]): 30.8 µM
IC50 (SiHa; [8]): 19.3 µM
IC50 (SiHa; [9]): 30.5 µM
IC50 (C33A): 12.8 µM
IC50 (HeLa; [7]): 18 µM
IC50 (HeLa; [8]): 9.7 µM
IC50 (HeLa; [9]): 24.4 µM
levels of NFκB-p50 and NFκB-p65 in the nucleus [1]: increased levels
p53 reporter activity [2]: significantly reduced
nuclear fluorescence relative to cytoplasmic fluorescence (Fc (Nu/Cy)) ([3]; single cisplatin treatment): significant increase
nuclear localization of NFκB-p50 and NFκB-p65 ([3]; single cisplatin treatment (30 μM), 24 h): stimulated nuclear localization
levels of cyclin D1 and c-Myc [4]: elevated levels
p65 reporter activity [5]: induced
p53 protein levels ([6]; SiHa, single cisplatin treatment): increased
Mcl-1 levels [6, 10]: decreased
p21 levels [6, 10]: decreased

CCC(=C/[C@H](C)C/C=C/C(C)=C/[C@@H](C)C(=O)[C@@H](C)[C@H](O)[C@@H](C)C/C(C)=C/C(=O)O)/C=C/[C@@H]1OC(=O)C=C[C@@H]1C [leptomycin B]
effect on p53 stability (p53): stabilize p53
